Here are results for 53 compounds from the PolyMetriX glass transition set.

Take `*/C(=C(\C#N)c1ccc(C(=O)OC2CCN(*)CC2)cc1)c1ccc(OC)cc1` (repeat unit): the glass transition temperature was 183.00 °C.

`*/C=C/c1ccc(OC(=O)c2ccc(C(=O)Oc3cccc4ccc(*)nc34)cc2)cc1` (repeat unit): the glass transition temperature was found to be 112.00 °C.

Take `*C(=O)Nc1ccc(Oc2cc(C(C)(C)C)c(Oc3ccc(NC(=O)c4ccc5c(c4)C(=O)N(c4ccc(Oc6ccc(C7(c8ccc(Oc9ccc(N%10C(=O)c%11ccc(*)cc%11C%10=O)cc9)cc8)CC8CC7C7CCCC87)cc6)cc4)C5=O)cc3)cc2C(C)(C)C)cc1` (repeat unit): the glass transition temperature was 290.00 °C.

Consider `*C(=O)Nc1ccc(Oc2ccc(-c3ccc(Oc4ccc(NC(=O)c5ccc6c(c5)C(=O)N(c5ccc(Oc7ccc(C8(c9ccc(Oc%10ccc(N%11C(=O)c%12ccc(*)cc%12C%11=O)cc%10)cc9)CC9CC8C8CCCC98)cc7)cc5)C6=O)cc4)cc3C)c(C)c2)cc1` (repeat unit), for which the glass transition temperature worked out at 265.00 °C.

The compound `*C(=O)c1ccc(Oc2c(C)cc(-c3cc(C)c(Oc4ccc(C(=O)c5ccc6nc(*)ccc6c5)cc4)c(C)c3C)c(C)c2C)cc1` (repeat unit) gave a glass transition temperature of 250.00 °C.

In turn, `*Oc1c(C)c(C)c(Oc2ccc(NC(=O)c3ccc(C(=O)Nc4ccc(*)cc4)cc3)cc2)c(C)c1C` (repeat unit) yielded a glass transition temperature of 310.00 °C.

Compound `*Oc1c(C)cc(-c2cc(CBr)c(Oc3ccc(C(=O)c4ccc(*)cc4)cc3)c(CBr)c2)cc1CBr` (repeat unit) came in with a glass transition temperature of 163.67 °C.

For `*Oc1ccc(/C=C2\CC/C(=C\c3ccc(OC(=O)c4ccc(/N=C/c5ccc(/C=N/c6ccc(C(*)=O)cc6)cc5)cc4)cc3)C2=O)cc1` (repeat unit), the glass transition temperature came out at 205.00 °C.

`*Oc1ccc(/N=N/c2ccc(Cc3ccc(/N=N/c4ccc(OC(=O)c5ccc(C(*)=O)cc5)cc4)cc3[N+](=O)[O-])c([N+](=O)[O-])c2)cc1` (repeat unit) gave a glass transition temperature of 198.00 °C.

With `*Oc1ccc(C(=O)c2ccccc2)c(-c2cc(Oc3ccc(C(c4ccc(*)cc4)(C(F)(F)F)C(F)(F)F)cc3)ccc2C(=O)c2ccccc2)c1` (repeat unit), the glass transition temperature is 164.00 °C.

`*Oc1ccc(C(c2ccc(OC(*)=O)cc2)(C(F)(F)Cl)C(F)(F)Cl)cc1` (repeat unit): the glass transition temperature worked out at 183.50 °C.

Consider `*Oc1ccc(C(c2ccc(OC(*)=O)cc2)C2C3CCC(C3)C2c2ccccc2)cc1` (repeat unit), for which the glass transition temperature is 196.00 °C.

On to `*Oc1ccc(C(c2ccc(OC(=O)c3ccc(OCCCCCCCCCCOc4ccc(C(*)=O)cc4)cc3)cc2)(C(F)(F)F)C(F)(F)F)cc1` (repeat unit), for which the glass transition temperature came to 89.00 °C.

Turning to `*Oc1ccc(C(c2ccccc2)(c2ccccc2)c2ccc(OC(=O)c3ccc(C(*)=O)cc3)cc2)cc1` (repeat unit), the glass transition temperature came out at 210.00 °C.

Regarding `*Oc1ccc(C(c2ccccc2)c2ccc(OC(*)=O)cc2)cc1` (repeat unit), the glass transition temperature is 170.00 °C.

For `*Oc1ccc(C(c2ccccc2)c2ccc(OC(*)=S)cc2)cc1` (repeat unit), the glass transition temperature came out at 179.00 °C.

As for `*Oc1ccc(C2(c3ccc(OC(*)=O)c(Cl)c3)CC3CCC2C3)cc1Cl` (repeat unit), the glass transition temperature was 200.00 °C.

`*Oc1ccc(C2(c3ccc(OC(*)=O)cc3)CCCC2)cc1` (repeat unit) showed a glass transition temperature of 166.00 °C.

`*Oc1ccc(C2(c3ccc(OC(*)=O)cc3)CCCCC2)cc1` (repeat unit) registered a glass transition temperature of 175.00 °C.

The compound `*Oc1ccc(C2(c3ccc(OC(*)=O)cc3)c3ccccc3-c3ccccc32)cc1` (repeat unit) had a glass transition temperature of 355.00 °C.

Consider `*Oc1ccc(C2(c3ccc(OC(*)=S)cc3)CCCC2)cc1` (repeat unit), for which the glass transition temperature was found to be 79.00 °C.

For the compound `*Oc1ccc(C2(c3ccc(OC(*)=S)cc3)CCCCC2)cc1` (repeat unit), the glass transition temperature stood at 155.00 °C.

Compound `*Oc1ccc(C2(c3ccc(OC(=O)c4cccc(C(*)=O)c4)cc3)CCCCC2)cc1` (repeat unit) yielded a glass transition temperature of 127.00 °C.

The compound `*Oc1ccc(C2(c3ccc(Oc4ccc(C(=O)c5ccccc5)c(-c5cc(*)ccc5C(=O)c5ccccc5)c4)cc3)c3ccccc3-c3ccccc32)cc1` (repeat unit) came in with a glass transition temperature of 215.00 °C.

For `*Oc1ccc(C2(c3ccc(Oc4ccc5c(=O)n6c7cc(-c8ccc9c(c8)nc8c%10ccc(*)c%11cccc(c(=O)n98)c%11%10)ccc7nc6c6cccc4c56)cc3)c3ccccc3-c3ccccc32)cc1` (repeat unit), the glass transition temperature was 421.00 °C.

As for `*Oc1ccc(N[Se]Nc2ccc(*)cc2)cc1` (repeat unit), the glass transition temperature was 55.00 °C.

Regarding `*Oc1ccc(OC(=O)c2cc(OCCCCOCC3CCCN3c3ccc([N+](=O)[O-])cc3)c(C(*)=O)cc2OCCCCOCC2CCCN2c2ccc([N+](=O)[O-])cc2)cc1` (repeat unit), the glass transition temperature worked out at 68.00 °C.

The compound `*Oc1ccc(OC(=O)c2ccc(-c3ccc(C(*)=O)cc3)cc2-c2ccccc2)cc1` (repeat unit) returned a glass transition temperature of 140.00 °C.

The compound `*Oc1ccc(OC(=O)c2ccc(C(*)=O)cc2)cc1-c1cccc(C(F)(F)F)c1` (repeat unit) returned a glass transition temperature of 155.80 °C.

`*Oc1ccc(OC(=O)c2ccc(C(*)=O)cc2)cc1C(F)(F)F` (repeat unit) returned a glass transition temperature of 159.30 °C.

In turn, `*Oc1ccc(Oc2ccc(C(=O)Nc3ccc(Oc4ccc(S(=O)(=O)c5ccc(Oc6ccc(NC(=O)c7ccc(*)cc7)cc6)cc5)cc4)cc3)cc2)cc1C` (repeat unit) gave a glass transition temperature of 217.00 °C.

`*Oc1ccc(Oc2ccc(C(=O)c3ccc(*)c(S(=O)(=O)O)c3)cc2S(=O)(=O)O)cc1S(=O)(=O)O` (repeat unit) yielded a glass transition temperature of 248.00 °C.

Take `*Oc1ccc(Oc2ccc(C(=O)c3ccc(*)cc3)cc2)cc1-c1ccc(Oc2ccccc2)cc1` (repeat unit): the glass transition temperature was found to be 146.00 °C.

For the compound `*Oc1ccc(Oc2ccc(C(=O)c3ccc(*)cc3)cc2)cc1-c1ccccc1` (repeat unit), the glass transition temperature is 157.00 °C.

Take `*Oc1ccc(Oc2ccc(C(=O)c3ccc(*)cc3)cc2)cc1C` (repeat unit): the glass transition temperature was determined as 151.00 °C.

In the case of `*Oc1ccc(Oc2ccc(C(=O)c3ccc(*)cc3)cc2)cc1C(C)(C)C` (repeat unit), the glass transition temperature is 177.00 °C.

`*Oc1ccc(Oc2ccc(C(=O)c3ccc(C(=O)c4ccc(*)cc4)cc3)cc2)cc1-c1ccc(S(=O)(=O)O)c(C)c1` (repeat unit) returned a glass transition temperature of 167.00 °C.

Compound `*Oc1ccc(Oc2ccc(NC(=O)c3ccc(Oc4ccc(Oc5ccc(C(=O)Nc6ccc(*)cc6)cc5)cc4C)cc3)cc2)cc1` (repeat unit) displayed a glass transition temperature of 200.00 °C.

The compound `*Oc1ccc(S(=O)(=O)c2ccc(Oc3ccc(C(=O)c4cc(C(=O)c5ccc(*)cc5)cc(C(C)(C)C)c4)cc3)cc2)cc1` (repeat unit) returned a glass transition temperature of 198.00 °C.

`*c1ccc(OC(=O)c2ccc(C(=O)Oc3ccc(-c4nc5ccccc5nc4*)cc3)cc2)cc1` (repeat unit) came in with a glass transition temperature of 232.00 °C.

In turn, `*c1ccc(OC(=O)c2cccc(C(=O)Oc3ccc(C4(*)C(=O)Nc5ccccc54)cc3)c2)cc1` (repeat unit) gave a glass transition temperature of 256.00 °C.

In turn, `*c1ccc(Oc2cc(C(C)(C)C)c(Oc3ccc(-n4c(=O)c5cc6c(=O)n(*)c(=O)c6cc5c4=O)cc3)cc2C(C)(C)C)cc1` (repeat unit) returned a glass transition temperature of 298.00 °C.

For the compound `*c1ccc(Oc2ccc(-c3ccc(Oc4ccc(N5C(=O)c6ccc(Oc7ccc(C8(c9ccc(Oc%10ccc%11c(c%10)C(=O)N(*)C%11=O)cc9)CCC(c9ccccc9)CC8)cc7)cc6C5=O)cc4)cc3C)c(C)c2)cc1` (repeat unit), the glass transition temperature came to 226.00 °C.

As for `*c1ccc(Oc2ccc(-c3ccc(Oc4ccc(N5C(=O)c6ccc(Oc7ccc(C8(c9ccc(Oc%10ccc%11c(c%10)C(=O)N(*)C%11=O)cc9)CCCCCCCCCCC8)cc7)cc6C5=O)cc4)cc3C)c(C)c2)cc1` (repeat unit), the glass transition temperature is 257.00 °C.

The compound `*c1ccc(Oc2ccc(-c3ccc(Oc4ccc(N5C(=O)c6cccc(Oc7ccc(C(c8ccc(Oc9cccc%10c9C(=O)N(*)C%10=O)cc8)(C(F)(F)F)C(F)(F)F)cc7)c6C5=O)cc4)cc3)cc2)cc1` (repeat unit) yielded a glass transition temperature of 234.00 °C.

In the case of `*c1ccc(Oc2ccc(C3(c4ccc(Oc5ccc(N6C(=O)c7ccc(Oc8ccc(C9(c%10ccc(Oc%11ccc%12c(c%11)C(=O)N(*)C%12=O)cc%10)CCCCCCCCCCC9)cc8)cc7C6=O)cc5)cc4)C4CC5CC(C4)CC3C5)cc2)cc1` (repeat unit), the glass transition temperature came out at 262.00 °C.

As to `*c1ccc(Oc2ccc(N3C(=O)C(Cl)=C(Oc4ccc(C(c5ccc(OC6=C(Cl)C(=O)N(*)C6=O)cc5)(C(F)(F)F)C(F)(F)F)cc4)C3=O)cc2)cc1` (repeat unit), the glass transition temperature was 193.00 °C.

Take `*c1ccc(Oc2ccc(Oc3ccc(N4C(=O)c5ccc(-c6ccc7c(c6)C(=O)N(*)C7=O)cc5C4=O)cc3)c(C)c2)cc1` (repeat unit): the glass transition temperature worked out at 265.00 °C.

The compound `*c1ccc(Oc2ccc(Oc3ccc(N4C(=O)c5ccc(Oc6ccc(C7(c8ccc(Oc9ccc%10c(c9)C(=O)N(*)C%10=O)cc8)CCCCCCCCCCC7)cc6)cc5C4=O)cc3)c(C(C)(C)C)c2)cc1` (repeat unit) displayed a glass transition temperature of 262.00 °C.

With `*c1ccc(Oc2cccc(Oc3ccc(-n4c(=O)c5cc6c(=O)n(*)c(=O)c6cc5c4=O)cc3)c2C#N)cc1` (repeat unit), the glass transition temperature turned out to be 328.00 °C.

Turning to `*c1ccc(Oc2cccc(Oc3ccc(N4C(=O)c5ccc(Oc6ccc(C(=O)c7ccc(Oc8ccc9c(c8)C(=O)N(*)C9=O)cc7)cc6)cc5C4=O)cc3)c2)cc1` (repeat unit), the glass transition temperature came out at 194.00 °C.

`*c1ccc2c(c1)C(=O)N(c1ccc(Oc3cc(C(C)(C)C)c(Oc4ccc(N5C(=O)c6ccc(C(*)(C(F)(F)F)C(F)(F)F)cc6C5=O)cc4)cc3C(C)(C)C)cc1)C2=O` (repeat unit): the glass transition temperature stood at 277.00 °C.

For the compound `*c1nnc(-c2ccc(Oc3ccc(/C=C/c4ccc(Oc5ccc(*)c6ccccc56)cc4)cc3)c3ccccc23)o1` (repeat unit), the glass transition temperature came out at 238.00 °C.
